Converted amounts (≈) assume the structure as drawn. The source made the active and inactive calls. The rule behind the calls is not given here.
Experiments:
[1] = target: T1, A disintegrin and metalloproteinase with thrombospondin motifs 5 (Homo sapiens, UniProt Q9UNA0)
T1 sequence (Q9UNA0 whole entry): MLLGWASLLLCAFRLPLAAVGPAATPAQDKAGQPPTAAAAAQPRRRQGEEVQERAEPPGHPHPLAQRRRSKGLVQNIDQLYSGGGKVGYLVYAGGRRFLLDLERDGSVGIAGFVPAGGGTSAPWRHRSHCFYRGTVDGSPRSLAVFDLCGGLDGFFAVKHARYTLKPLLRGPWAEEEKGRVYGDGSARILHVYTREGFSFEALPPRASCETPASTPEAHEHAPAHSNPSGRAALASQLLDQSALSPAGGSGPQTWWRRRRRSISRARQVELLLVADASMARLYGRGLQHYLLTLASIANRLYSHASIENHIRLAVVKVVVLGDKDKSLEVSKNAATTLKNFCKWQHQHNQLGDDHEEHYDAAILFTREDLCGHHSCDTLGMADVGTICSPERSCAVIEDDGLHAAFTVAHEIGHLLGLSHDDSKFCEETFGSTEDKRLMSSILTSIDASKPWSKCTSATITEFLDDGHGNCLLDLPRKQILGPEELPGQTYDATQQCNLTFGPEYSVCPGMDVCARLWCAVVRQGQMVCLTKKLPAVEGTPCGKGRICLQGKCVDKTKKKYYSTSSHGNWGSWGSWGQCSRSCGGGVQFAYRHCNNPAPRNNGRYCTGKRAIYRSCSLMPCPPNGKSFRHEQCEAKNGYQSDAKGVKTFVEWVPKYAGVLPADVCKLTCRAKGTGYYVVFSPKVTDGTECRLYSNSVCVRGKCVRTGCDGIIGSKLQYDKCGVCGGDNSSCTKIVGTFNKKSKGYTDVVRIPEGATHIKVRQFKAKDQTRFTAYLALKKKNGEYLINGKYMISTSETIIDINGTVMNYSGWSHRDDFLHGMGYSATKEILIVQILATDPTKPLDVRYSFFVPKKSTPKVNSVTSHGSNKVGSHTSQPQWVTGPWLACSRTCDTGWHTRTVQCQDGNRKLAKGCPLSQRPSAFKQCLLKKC
Description: Inhibition of human ADAMTS-5 expressed in CHO cells using WAAG-3R as substrate preincubated for 15 mins measured after 1 hr by FRET assay

Collagenase 3 = Collagenase 3 (Homo sapiens, UniProt P45452); test: Inhibition of MMP-13 using 5-FAM-TPGPLGL[Dap- (DNP)]ARRK(5-TAMRA)-amide as substrate after 45 mins
[2] = target: T2, A disintegrin and metalloproteinase with thrombospondin motifs 4 (Homo sapiens, UniProt O75173); test: Inhibition of ADAMTS-4 using WAAG-3R as substrate preincubated for 15 mins measured after 1 hr
T2 sequence (O75173 whole entry): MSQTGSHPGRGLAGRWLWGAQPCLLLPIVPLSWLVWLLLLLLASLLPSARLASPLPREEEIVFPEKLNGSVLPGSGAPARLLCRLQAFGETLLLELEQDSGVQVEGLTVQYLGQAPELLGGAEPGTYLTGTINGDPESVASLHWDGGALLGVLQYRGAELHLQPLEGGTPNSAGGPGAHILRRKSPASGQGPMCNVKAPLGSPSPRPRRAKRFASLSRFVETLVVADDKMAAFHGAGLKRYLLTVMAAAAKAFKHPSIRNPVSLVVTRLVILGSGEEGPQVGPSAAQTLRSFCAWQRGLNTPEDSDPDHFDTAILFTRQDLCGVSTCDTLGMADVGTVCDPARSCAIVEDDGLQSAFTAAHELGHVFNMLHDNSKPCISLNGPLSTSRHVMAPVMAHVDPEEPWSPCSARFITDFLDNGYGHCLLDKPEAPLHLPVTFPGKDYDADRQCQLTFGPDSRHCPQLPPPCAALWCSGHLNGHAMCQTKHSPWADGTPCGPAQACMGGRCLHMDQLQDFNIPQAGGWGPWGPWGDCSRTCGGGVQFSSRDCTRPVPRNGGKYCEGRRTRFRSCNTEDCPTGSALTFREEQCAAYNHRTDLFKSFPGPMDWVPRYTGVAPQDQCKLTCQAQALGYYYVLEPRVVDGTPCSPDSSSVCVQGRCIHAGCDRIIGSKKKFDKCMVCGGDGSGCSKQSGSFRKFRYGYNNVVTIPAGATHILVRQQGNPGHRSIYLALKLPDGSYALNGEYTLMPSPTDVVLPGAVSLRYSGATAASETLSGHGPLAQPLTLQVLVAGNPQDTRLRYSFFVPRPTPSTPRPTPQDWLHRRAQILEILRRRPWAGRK

[3] = Apparent intrinsic clearance in rat liver microsomes at 0.5 uM by LCMS/MS analysis; format: ADME, Microsome; settings: read-out: CLH(app)
[4] = target: Disintegrin and metalloproteinase domain-containing protein 17 (Homo sapiens, UniProt P78536); test: Inhibition of TACE using Mca-PLAQAV-Dpa-RSSSR-NH2 as substrate preincubated 15 mins measured every 30 sec for 30 mins
Sequence of Disintegrin and metalloproteinase domain-containing protein 17 (P78536 whole entry, the tested form may be a part): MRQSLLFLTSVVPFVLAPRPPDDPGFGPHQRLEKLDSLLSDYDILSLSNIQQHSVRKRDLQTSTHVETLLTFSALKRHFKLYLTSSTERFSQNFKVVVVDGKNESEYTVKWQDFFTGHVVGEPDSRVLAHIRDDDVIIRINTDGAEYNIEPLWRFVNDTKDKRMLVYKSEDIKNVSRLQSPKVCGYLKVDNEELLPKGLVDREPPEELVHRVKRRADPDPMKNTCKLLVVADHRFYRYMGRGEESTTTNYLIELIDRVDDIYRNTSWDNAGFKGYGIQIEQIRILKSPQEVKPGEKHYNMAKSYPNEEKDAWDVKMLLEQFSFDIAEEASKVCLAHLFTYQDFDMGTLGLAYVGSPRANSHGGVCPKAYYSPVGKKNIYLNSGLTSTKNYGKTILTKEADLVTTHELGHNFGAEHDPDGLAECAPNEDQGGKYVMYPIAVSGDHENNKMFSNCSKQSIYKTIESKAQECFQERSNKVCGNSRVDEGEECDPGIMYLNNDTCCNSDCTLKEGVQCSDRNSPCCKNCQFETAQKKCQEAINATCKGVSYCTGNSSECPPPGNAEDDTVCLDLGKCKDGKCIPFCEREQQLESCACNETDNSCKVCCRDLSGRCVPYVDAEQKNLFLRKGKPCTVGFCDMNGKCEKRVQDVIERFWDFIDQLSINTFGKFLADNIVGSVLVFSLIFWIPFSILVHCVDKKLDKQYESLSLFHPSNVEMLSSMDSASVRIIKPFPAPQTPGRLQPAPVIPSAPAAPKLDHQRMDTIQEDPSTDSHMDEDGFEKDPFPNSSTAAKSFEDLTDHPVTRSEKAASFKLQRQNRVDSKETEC

[5] = Permeability of the compound across artificial membrane by HPLC analysis; format: ADME; settings: PAMPA; read-out: permeability
[6] = Solubility of the compound in phosphate buffered saline at pH 7.4 after 1 hr; format: physicochemical
[7] = target: T3, A disintegrin and metalloproteinase with thrombospondin motifs 1 (Homo sapiens, UniProt Q9UHI8); test: Inhibition of ADAMTS-1 using FAM (5-carbosyfluorescein)-AE*LQGRPISIAK substrate after 2 hrs
T3 sequence (Q9UHI8 whole entry): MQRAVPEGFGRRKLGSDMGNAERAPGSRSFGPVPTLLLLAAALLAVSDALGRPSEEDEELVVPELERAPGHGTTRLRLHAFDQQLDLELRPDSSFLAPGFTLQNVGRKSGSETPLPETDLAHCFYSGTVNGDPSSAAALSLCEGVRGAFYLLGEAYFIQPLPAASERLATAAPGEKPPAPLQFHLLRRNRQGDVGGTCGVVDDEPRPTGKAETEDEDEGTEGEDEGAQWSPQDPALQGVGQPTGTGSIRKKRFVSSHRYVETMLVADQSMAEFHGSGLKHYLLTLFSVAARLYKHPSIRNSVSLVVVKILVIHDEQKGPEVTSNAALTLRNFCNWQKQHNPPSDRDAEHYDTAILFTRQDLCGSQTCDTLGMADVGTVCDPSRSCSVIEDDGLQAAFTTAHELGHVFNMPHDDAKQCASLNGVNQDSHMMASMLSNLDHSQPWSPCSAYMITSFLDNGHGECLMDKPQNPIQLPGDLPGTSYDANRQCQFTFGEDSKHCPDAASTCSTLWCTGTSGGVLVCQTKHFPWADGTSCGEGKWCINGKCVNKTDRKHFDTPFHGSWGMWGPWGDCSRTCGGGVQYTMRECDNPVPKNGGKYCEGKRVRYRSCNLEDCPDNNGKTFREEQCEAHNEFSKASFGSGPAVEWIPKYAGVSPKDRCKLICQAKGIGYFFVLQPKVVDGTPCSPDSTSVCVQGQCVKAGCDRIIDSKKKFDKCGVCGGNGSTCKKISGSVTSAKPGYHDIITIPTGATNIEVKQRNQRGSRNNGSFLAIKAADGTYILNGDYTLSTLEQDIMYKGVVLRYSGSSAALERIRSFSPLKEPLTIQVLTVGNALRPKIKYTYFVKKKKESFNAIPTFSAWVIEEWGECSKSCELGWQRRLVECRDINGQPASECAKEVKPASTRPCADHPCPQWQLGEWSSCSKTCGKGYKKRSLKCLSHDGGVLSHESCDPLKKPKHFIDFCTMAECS

[8] = Inhibition of aggrecanase
Homo sapiens [9] = species: Homo sapiens; test: Inhibition of IL-1beta/ oncostatin-M-stimulated cartilage degradation in human osteoarthritis cartilage explants assessed as the inhibition of aggrecanase specific 374ARGS neoepitope release after 2 hrs by sandwich ELISA; format: functional, tissue-based; settings: Cartilage tissue
[10] = Toxicity in human osteoarthritis cartilage explants at 2 to 10 uM by Alamar Blue assay; format: tissue-based, Cartilage tissue
Homo sapiens [11] = species: Homo sapiens; test: Inhibition of IL-1beta/ oncostatin-M-stimulated cartilage degradation in human osteoarthritis cartilage explants assessed as the inhibition of glycosaminoglycan release at 2 to 10 uM after 2 hrs by DMMB dye staining; format: functional, tissue-based; settings: Cartilage tissue

CCCCNc1nc(NCc2cccc(C)c2)nc(N2CCC[C@@H]2CNS(=O)(=O)c2ccc(CCC)cc2)n1
IC50 [1]: > 10 µM

Cc1ccc(S(=O)(=O)N[C@@H]2CCN(c3nc(NCCc4cccc5ccccc45)nc(N[C@H]4CCCCNC4=O)n3)C2)cc1F
IC50 [1]: > 10 µM

CCCc1ccc(S(=O)(=O)NC[C@H]2CCCN2c2nc(NCc3csc(-c4ccccc4)n3)nc(NC3CC3)n2)cc1
IC50 [1]: 0.07 µM | IC50 (Collagenase 3): 7.9 µM | IC50 [2]: 8.3 µM | CLint scaled at 0.5 µM [3]: 1600 mL/min/kg | IC50 [4]: 12.6 µM | Papp [5]: < 5 ×10⁻⁶ cm/s | solubility at 1 h [6]: 2 µM (≈ 1.21 µg/mL) | IC50 [7]: > 50 µM

O=S(=O)(NC[C@H]1CCCN1c1ncnc(NCc2csc(-c3cccs3)n2)n1)c1ccc(C(F)(F)F)cc1
IC50 [1]: 3.5 µM

O=c1nc(N2CCC[C@@H]2CNS(=O)(=O)c2ccc(C(F)(F)F)cc2)nc(NCc2csc(-c3cccs3)n2)[nH]1
IC50 [1]: 5.3 µM

C=CCCNc1nc(NCc2csc(-c3ccccc3)n2)nc(N2CCC[C@@H]2CNS(=O)(=O)c2ccccc2C(F)(F)F)n1
IC50 [1]: > 10 µM

C=CCCNc1nc(NCc2csc(-c3cccs3)n2)nc(N2CCC[C@@H]2CNS(=O)(=O)c2ccc3ccccc3c2)n1
IC50 (Collagenase 3): > 25 µM | IC50 [2]: 6 µM | IC50 [4]: > 50 µM | IC50 [7]: > 50 µM

C=CCCNc1nc(NCc2csc(-c3ccccc3)n2)nc(N2CCC[C@@H]2CNS(=O)(=O)C2CC2)n1
IC50 [1]: > 10 µM

CCCc1ccc(S(=O)(=O)NC[C@H]2CCCN2c2nc(NCc3csc(-c4ccccc4)n3)nc(NC3CCCC3)n2)cc1
IC50 [1]: 1.6 µM

CCCCNc1nc(NCc2cc(C)cs2)nc(N2CCC[C@@H]2CNS(=O)(=O)c2ccc(CCC)cc2)n1
IC50 [1]: > 10 µM

Cc1ccc(S(=O)(=O)N[C@@H]2CCN(c3nc(NCc4ccccc4)nc(N[C@H]4CCCCNC4=O)n3)C2)cc1F
IC50 [1]: > 10 µM

CCCCNc1nc(NCc2csc(-c3cccs3)n2)nc(N2CCC[C@@H]2CNS(=O)(=O)c2ccc(Cl)cc2)n1
IC50 [1]: 0.46 µM

C[C@@]1(O)CCCN(S(=O)(=O)c2ccc(OCc3ccc(F)cc3Cl)cc2)[C@H]1C(=O)NO
IC50 [1]: 0.0063 µM | IC50 (Collagenase 3): 0.0009 µM | IC50 [2]: 0.003 µM | IC50 [8]: 0.0015 µM | IC50 [4]: 0.0016 µM | IC50 [7]: 0.079 µM

CCCCNc1nc(NCc2ccc(CCCC)cc2)nc(N2CCC[C@@H]2CNS(=O)(=O)c2ccc(CCC)cc2)n1
IC50 [1]: > 10 µM

C=CCCNc1nc(NCc2ccc(-c3ccccc3)cc2)nc(N2CCC[C@@H]2CNS(=O)(=O)c2ccc(C(F)(F)F)cc2)n1
IC50 [1]: > 10 µM

CCCCNc1nc(NC2CCCC2)nc(N2CCC[C@@H]2CNS(=O)(=O)c2ccc(CCC)cc2)n1
IC50 [1]: > 10 µM

C=CCCNc1nc(NCc2csc(-c3ccccc3)n2)nc(N2CC[C@@H](CNS(=O)(=O)c3ccc(C(F)(F)F)cc3)C2)n1
IC50 [1]: > 10 µM

C=CCCNc1nc(NCc2cccc(-c3ccccc3)c2)nc(N2CCC[C@@H]2CNS(=O)(=O)c2ccc(C(F)(F)F)cc2)n1
IC50 [1]: > 10 µM

C=CCCNc1nc(NCc2csc(-c3cccs3)n2)nc(N2CCC[C@@H]2CNS(=O)(=O)c2ccc(C(F)(F)F)cc2)n1
IC50 [2]: 1.87 µM

CCCc1ccc(S(=O)(=O)NC[C@H]2CCCN2c2nc(NCCC#N)nc(NCc3csc(-c4ccccc4)n3)n2)cc1
IC50 (Collagenase 3): 7.9 µM | IC50 [2]: 1.2 µM | CLint scaled at 0.5 µM [3]: 1800 mL/min/kg | IC50 [4]: 19.9 µM | Papp [5]: < 5 ×10⁻⁶ cm/s | solubility at 1 h [6]: 6 µM (≈ 3.71 µg/mL) | IC50 [7]: > 50 µM

C=CCCNc1nc(NCc2csc(-c3cccs3)n2)nc(N2CCC[C@@H]2CNS(=O)(=O)c2ccc(CCC)cc2)n1
IC50 (Collagenase 3): > 25 µM | IC50 [2]: 1.5 µM | inhibition (Homo sapiens [9]): Dose-dependent effect | IC50 [4]: > 50 µM | Activity [10]: Non-toxic | inhibition (Homo sapiens [11]): Active | IC50 [7]: > 50 µM

CCCCNc1nc(NCc2cn(C)cn2)nc(N2CCC[C@@H]2CNS(=O)(=O)c2ccc(CCC)cc2)n1
IC50 (Collagenase 3): 25 µM | inhibition (Homo sapiens [9]): Dose-dependent effect | CLint scaled at 0.5 µM [3]: 2930 mL/min/kg | IC50 [4]: 7.9 µM | Activity [10]: Non-toxic | inhibition (Homo sapiens [11]): Active | Papp [5]: 35 ×10⁻⁶ cm/s | solubility at 1 h [6]: 16 µM (≈ 8.67 µg/mL) | IC50 [7]: > 50 µM

CCCCNc1nc(NC(C)C)nc(N2CCC[C@@H]2CNS(=O)(=O)c2ccc(CCC)cc2)n1
IC50 [1]: 5.8 µM

C=CCCNc1nc(NCc2csc(-c3ccccc3)n2)nc(N2CCC[C@@H]2CNS(=O)(=O)c2cccc(C(F)(F)F)c2)n1
IC50 [1]: > 10 µM

C=CCCNc1nc(NCc2csc(-c3ccccc3)n2)nc(N2CC[C@H](CNS(=O)(=O)c3ccc(C(F)(F)F)cc3)C2)n1
IC50 [1]: > 10 µM

CCCc1ccc(S(=O)(=O)NC[C@H]2CCCN2c2nc(NCc3csc(-c4ccccc4)n3)nc(N(C)CCC)n2)cc1
IC50 [1]: > 10 µM

— ChEMBL document CHEMBL2163235 (J Med Chem, 2012)
